Assay results from PubChem BioAssay (NCI).
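Growth conditions: 96-well plates. Treatment: test compound, 48 hours, 5 concentrations. Analysis: linear interpolation between bracketing concentrations; unreached endpoints set to highest concentration. The concentration for full growth arrest is given as TGI.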

Key:
Assay in all cases: DTP human tumour cell line panel, 48 h
[1] = system: 786-0 renal
[2] = system: A549 NSCLC
[3] = system: COLO 205 colon
[4] = system: HL-60(TB) leukemia
[5] = system: K-562 leukemia
[6] = system: LOX IMVI melanoma
[7] = system: MDA-MB-231 breast
[8] = system: MDA-MB-435
[9] = system: NCI-H522 lung
[10] = system: NCI/ADR-RES ovarian
[11] = system: OVCAR-5 ovarian
[12] = system: RPMI-8226 leukemia
[13] = system: RXF 393 renal
[14] = system: SF-539 CNS
[15] = system: SNB-19 CNS
[16] = system: SR leukemia
[17] = system: UACC-62 melanoma
[18] = system: OVCAR-3 ovarian

| SMILES | TGI [1] [µM] | TGI [2] [µM] | TGI [3] [µM] | TGI [4] [µM] | TGI [5] [µM] | TGI [6] [µM] | TGI [7] [µM] | TGI [8] [µM] | TGI [9] [µM] | TGI [10] [µM] | TGI [11] [µM] | TGI [12] [µM] | TGI [13] [µM] | TGI [14] [µM] | TGI [15] [µM] | TGI [16] [µM] | TGI [17] [µM] | TGI [18] [µM] |
| --- | --- | --- | --- | --- | --- | --- | --- | --- | --- | --- | --- | --- | --- | --- | --- | --- | --- | --- |
| CC(=O)N=C1N(/C=C2\C(=O)Oc3ccccc3C2=O)C(=O)/C(=C/c2ccccc2Cl)N1C | > 100 | > 100 | > 100 | > 100 | > 100 | > 100 | > 100 | > 100 | > 100 | > 100 | > 100 | > 100 | > 100 | > 100 | > 100 | > 100 | > 100 |  |
| N#Cc1c(-c2ccccc2)c(C#N)c(=O)n(C2OC(CO)C(O)C(O)C2O)c1S (stereo not given) | > 100 | > 100 |  | > 100 | > 100 | > 100 | > 100 | > 100 | > 100 | > 100 | > 100 | > 100 | > 100 | > 100 | > 100 | > 100 | > 100 | > 100 |
| Nc1c(N2CCCCC2)c(=O)nc2[nH]/c(=C\c3ccccc3)c(=O)n12 | > 100 | > 100 | > 100 | > 100 | > 100 | > 100 | > 100 | > 100 | > 100 | > 100 | > 100 | > 100 | > 100 | > 100 | > 100 | > 100 |  |  |
| CC(=O)O[C@@H]1O[Si](C(C)(C)C)(C(C)(C)C)[C@H](C)[C@H]1C | > 100 | > 100 | > 100 | 44 | > 100 | > 100 | > 100 | > 100 | > 100 | > 100 | > 100 | > 100 |  | > 100 | > 100 | > 100 | > 100 | > 100 |
| Cc1c(-c2ccccc2)c(C#N)c2nnn(-c3cccc(Cl)c3)c(=O)n12 | 86.6 |  | > 100 | > 100 | > 100 | > 100 | 72.9 | > 100 | > 100 | > 100 | > 100 | > 100 | > 100 | > 100 |  | > 100 | > 100 | > 100 |
| CC(C)(C)NC(=O)C12C3C4C1C1C2C3C41C(=O)NC(C)(C)C (stereo not given) | > 100 | > 100 | > 100 | > 100 | > 100 | > 100 | > 100 | > 100 | > 100 | > 100 | > 100 |  | > 100 | > 100 | > 100 | > 100 | > 100 | > 100 |
| CN(C)c1ccc(C(=NN)c2ccc(N(C)C)cc2)cc1 | 36.5 | > 100 |  | 3.35 | > 56.9 | > 100 | 10 | 0.298 | 18.7 | 0.672 | > 100 | 10.3 | > 32.7 |  | > 100 | > 100 | > 100 |  |
